According to patent US20150105252A1, “SUBSTITUTED PYRAZOLES AS HERBICIDES” (E I DU PONT DE NEMOURS AND COMPANY, priority 2013, published 2015):

Assays:
lambsquarters [1] = assay: Test C preemergence; format: in vivo, Chenopodium album; conditions: for Plant response rating (scale of 0 to 100), Lambsquarters: Preemergence, 250 g ai/ha; for Lambsquarters plant response rating / Plant response rating, Lambsquarters: preemergence, 13 to 15 days; for Lambsquarters plant response rating: scale 0 to 100 (0 no effect, 100 complete control); for Plant response rating, Lambsquarters: 125 g ai/ha, scale 0 to 100, 0 = no effect, 100 = complete control
How it was run: (§1)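 Scores of 0 (no effect) to 100 (complete control) were assigned by eye after 13–15 days, comparing treated pots with controls. Soil-applied (preemergence) treatments went onto seeds in loam and sand; foliar (postemergence) treatments onto 1- to 4-leaf plants in peat medium.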

barnyardgrass = assay: Test C postemergence; format: in vivo, Echinochloa crus-galli; conditions: for Plant response rating (scale of 0 to 100 where 0 is no effect and 100 is complete control), Barnyardgrass: Postemergence, 31 g ai/ha, visually evaluated after 13 to 15 days; for Barnyardgrass plant response rating / Plant response rating, Barnyardgrass: postemergence; for Barnyardgrass plant response rating: 62 g ai/ha, scale 0 to 100
How it was run: as §1

blackgrass = assay: Test C postemergence; format: in vivo, Alopecurus myosuroides; conditions: for Plant response rating (scale of 0 to 100 where 0 is no effect and 100 is complete control), Blackgrass: Postemergence, 31 g ai/ha, visually evaluated after 13 to 15 days; for Blackgrass plant response rating / Plant response rating, Blackgrass: postemergence; for Blackgrass plant response rating: 62 g ai/ha, scale 0 to 100
How it was run: as §1

morningglory = assay: Test C postemergence; format: in vivo, Ipomoea coccinea; conditions: for Plant response rating (scale of 0 to 100 where 0 is no effect and 100 is complete control), Morningglory: Postemergence, 31 g ai/ha, visually evaluated after 13 to 15 days; for Morningglory plant response rating / Plant response rating, Morningglory: postemergence; for Morningglory plant response rating: 62 g ai/ha, scale 0 to 100
How it was run: as §1

lambsquarters [2] = assay: Test C postemergence; format: in vivo, Chenopodium album; conditions: for Plant response rating (scale of 0 to 100 where 0 is no effect and 100 is complete control), Lambsquarters: Postemergence, 31 g ai/ha, visually evaluated after 13 to 15 days; for Lambsquarters plant response rating / Plant response rating, Lambsquarters: postemergence; for Lambsquarters plant response rating: 62 g ai/ha, scale 0 to 100
How it was run: as §1

kochia = assay: Test C postemergence; format: in vivo, Kochia scoparia; conditions: for Plant response rating (scale of 0 to 100 where 0 is no effect and 100 is complete control), Kochia: Postemergence, 31 g ai/ha, visually evaluated after 13 to 15 days; for Kochia plant response rating / Plant response rating, Kochia: postemergence; for Kochia plant response rating: 62 g ai/ha, scale 0 to 100
How it was run: as §1

crabgrass, large = assay: Test C postemergence; format: in vivo, Digitaria sanguinalis; conditions: for Plant response rating (scale of 0 to 100 where 0 is no effect and 100 is complete control), Crabgrass, Large: Postemergence, 31 g ai/ha, visually evaluated after 13 to 15 days; for Crabgrass, Large plant response rating / Plant response rating, Crabgrass, Large: postemergence; for Crabgrass, Large plant response rating: 62 g ai/ha, scale 0 to 100
How it was run: as §1

pigweed = assay: Test C postemergence; format: in vivo, Amaranthus retroflexus; conditions: for Plant response rating (scale of 0 to 100 where 0 is no effect and 100 is complete control), Pigweed: Postemergence, 31 g ai/ha, visually evaluated after 13 to 15 days; for Pigweed plant response rating / Plant response rating, Pigweed: postemergence; for Pigweed plant response rating: 62 g ai/ha, scale 0 to 100
How it was run: as §1

chickweed = assay: Test C postemergence; format: in vivo, Stellaria media; conditions: for Plant response rating (scale of 0 to 100 where 0 is no effect and 100 is complete control), Chickweed: Postemergence, 31 g ai/ha, visually evaluated after 13 to 15 days; for Chickweed plant response rating / Plant response rating, Chickweed: postemergence; for Chickweed plant response rating: 62 g ai/ha, scale 0 to 100
How it was run: as §1

galium = assay: Test C postemergence; format: in vivo, Galium aparine; conditions: for Plant response rating (scale of 0 to 100 where 0 is no effect and 100 is complete control), Galium: Postemergence, 31 g ai/ha, visually evaluated after 13 to 15 days; for Galium plant response rating / Plant response rating, Galium: postemergence; for Galium plant response rating: 62 g ai/ha, scale 0 to 100
How it was run: as §1

waterhemp = assay: Test C postemergence; format: in vivo, Amaranthus rudis; conditions: for Plant response rating (scale of 0 to 100 where 0 is no effect and 100 is complete control), Waterhemp: Postemergence, 31 g ai/ha, visually evaluated after 13 to 15 days; for Waterhemp plant response rating / Plant response rating, Waterhemp: postemergence; for Waterhemp plant response rating: 62 g ai/ha, scale 0 to 100
How it was run: as §1

oat, wild = assay: Test C postemergence; format: in vivo, Avena fatua; conditions: for Plant response rating (scale of 0 to 100 where 0 is no effect and 100 is complete control), Oat, Wild: Postemergence, 31 g ai/ha, visually evaluated after 13 to 15 days; for Oat, Wild plant response rating / Plant response rating, Oat, Wild: postemergence; for Oat, Wild plant response rating: 62 g ai/ha, scale 0 to 100
How it was run: as §1

velvetleaf = assay: Test C postemergence; format: in vivo, Abutilon theophrasti; conditions: for Plant response rating (scale of 0 to 100 where 0 is no effect and 100 is complete control), Velvetleaf: Postemergence, 31 g ai/ha, visually evaluated after 13 to 15 days; for Velvetleaf plant response rating / Plant response rating, Velvetleaf: postemergence; for Velvetleaf plant response rating: 62 g ai/ha, scale 0 to 100
How it was run: as §1

wheat = assay: Test C postemergence; format: in vivo, Triticum aestivum; conditions: for Plant response rating (scale of 0 to 100 where 0 is no effect and 100 is complete control), Wheat: Postemergence, 31 g ai/ha, visually evaluated after 13 to 15 days; for Wheat plant response rating / Plant response rating, Wheat: postemergence; for Wheat plant response rating: 62 g ai/ha, scale 0 to 100
How it was run: as §1

[3] = 250 g ai/ha, scale 0 to 100 (0 no effect, 100 complete control)
[4] = 125 g ai/ha, scale 0 to 100, 0 no effect, 100 complete control

CCNC(=O)c1cc(CC)n(Cc2ccnc(OC(F)F)c2)n1 [Compound 130]
Plant response rating (scale of 0 to 100), Lambsquarters (lambsquarters [1]): 98
Lambsquarters plant response rating (lambsquarters [1]; 31 g ai/ha, visual rating): 85
Lambsquarters plant response rating (lambsquarters [1]; 62 g ai/ha): 100
Plant response rating, Lambsquarters (lambsquarters [1]): 100
Plant response rating (scale of 0 to 100 where 0 is no effect and 100 is complete control), Barnyardgrass (barnyardgrass): 5
Barnyardgrass plant response rating (barnyardgrass): 5
Plant response rating, Barnyardgrass (barnyardgrass; [3]): 10
Plant response rating, Barnyardgrass (barnyardgrass; [4]): 5
Plant response rating (scale of 0 to 100 where 0 is no effect and 100 is complete control), Blackgrass (blackgrass): 5
Blackgrass plant response rating (blackgrass): 5
Plant response rating, Blackgrass (blackgrass; [3]): 10
Plant response rating, Blackgrass (blackgrass; [4]): 10
Plant response rating (scale of 0 to 100 where 0 is no effect and 100 is complete control), Morningglory (morningglory): 35
Morningglory plant response rating (morningglory): 75
Plant response rating, Morningglory (morningglory; [3]): 98
Plant response rating, Morningglory (morningglory; [4]): 85
Plant response rating (scale of 0 to 100 where 0 is no effect and 100 is complete control), Lambsquarters (lambsquarters [2]): 25
Lambsquarters plant response rating (lambsquarters [2]): 30
Plant response rating, Lambsquarters (lambsquarters [2]; [3]): 75
Plant response rating, Lambsquarters (lambsquarters [2]; [4]): 65
Plant response rating (scale of 0 to 100 where 0 is no effect and 100 is complete control), Kochia (kochia): 65
Kochia plant response rating (kochia): 75
Plant response rating, Kochia (kochia; [3]): 90
Plant response rating, Kochia (kochia; [4]): 90
Plant response rating (scale of 0 to 100 where 0 is no effect and 100 is complete control), Crabgrass, Large (crabgrass, large): 5
Crabgrass, Large plant response rating (crabgrass, large): 5
Plant response rating, Crabgrass, Large (crabgrass, large; [3]): 25
Plant response rating, Crabgrass, Large (crabgrass, large; [4]): 10
Plant response rating (scale of 0 to 100 where 0 is no effect and 100 is complete control), Pigweed (pigweed): 30
Pigweed plant response rating (pigweed): 65
Plant response rating, Pigweed (pigweed; [3]): 85
Plant response rating, Pigweed (pigweed; [4]): 50
Plant response rating (scale of 0 to 100 where 0 is no effect and 100 is complete control), Chickweed (chickweed): 65
Chickweed plant response rating (chickweed): 70
Plant response rating, Chickweed (chickweed; [3]): 75
Plant response rating, Chickweed (chickweed; [4]): 75
Plant response rating (scale of 0 to 100 where 0 is no effect and 100 is complete control), Galium (galium): 60
Galium plant response rating (galium): 65
Plant response rating, Galium (galium; [3]): 75
Plant response rating, Galium (galium; [4]): 65
Plant response rating (scale of 0 to 100 where 0 is no effect and 100 is complete control), Waterhemp (waterhemp): 30
Waterhemp plant response rating (waterhemp): 55
Plant response rating, Waterhemp (waterhemp; [3]): 80
Plant response rating, Waterhemp (waterhemp; [4]): 70
Plant response rating (scale of 0 to 100 where 0 is no effect and 100 is complete control), Oat, Wild (oat, wild): 5
Oat, Wild plant response rating (oat, wild): 10
Plant response rating, Oat, Wild (oat, wild; [3]): 15
Plant response rating, Oat, Wild (oat, wild; [4]): 15
Plant response rating (scale of 0 to 100 where 0 is no effect and 100 is complete control), Velvetleaf (velvetleaf): 5
Velvetleaf plant response rating (velvetleaf): 10
Plant response rating, Velvetleaf (velvetleaf; [3]): 60
Plant response rating, Velvetleaf (velvetleaf; [4]): 50
Plant response rating (scale of 0 to 100 where 0 is no effect and 100 is complete control), Wheat (wheat): 0
Wheat plant response rating (wheat): 0
Plant response rating, Wheat (wheat; [3]): 5
Plant response rating, Wheat (wheat; [4]): 5

CCCNC(=O)c1cc(CC)n(Cc2ccnc(OC(F)F)c2)n1 [Compound 132]
Plant response rating (scale of 0 to 100), Lambsquarters (lambsquarters [1]): 100
Lambsquarters plant response rating (lambsquarters [1]; 31 g ai/ha, visual rating): 100
Lambsquarters plant response rating (lambsquarters [1]; 62 g ai/ha): 100
Plant response rating, Lambsquarters (lambsquarters [1]): 100
Plant response rating (scale of 0 to 100 where 0 is no effect and 100 is complete control), Barnyardgrass (barnyardgrass): 5
Barnyardgrass plant response rating (barnyardgrass): 5
Plant response rating, Barnyardgrass (barnyardgrass; [3]): 50
Plant response rating, Barnyardgrass (barnyardgrass; [4]): 10
Plant response rating (scale of 0 to 100 where 0 is no effect and 100 is complete control), Blackgrass (blackgrass): 5
Blackgrass plant response rating (blackgrass): 5
Plant response rating, Blackgrass (blackgrass; [3]): 25
Plant response rating, Blackgrass (blackgrass; [4]): 10
Plant response rating (scale of 0 to 100 where 0 is no effect and 100 is complete control), Morningglory (morningglory): 30
Morningglory plant response rating (morningglory): 75
Plant response rating, Morningglory (morningglory; [3]): 98
Plant response rating, Morningglory (morningglory; [4]): 80
Plant response rating (scale of 0 to 100 where 0 is no effect and 100 is complete control), Lambsquarters (lambsquarters [2]): 25
Lambsquarters plant response rating (lambsquarters [2]): 55
Plant response rating, Lambsquarters (lambsquarters [2]; [3]): 85
Plant response rating, Lambsquarters (lambsquarters [2]; [4]): 75
Plant response rating (scale of 0 to 100 where 0 is no effect and 100 is complete control), Kochia (kochia): 70
Kochia plant response rating (kochia): 80
Plant response rating, Kochia (kochia; [3]): 90
Plant response rating, Kochia (kochia; [4]): 80
Plant response rating (scale of 0 to 100 where 0 is no effect and 100 is complete control), Crabgrass, Large (crabgrass, large): 5
Crabgrass, Large plant response rating (crabgrass, large): 5
Plant response rating, Crabgrass, Large (crabgrass, large; [3]): 55
Plant response rating, Crabgrass, Large (crabgrass, large; [4]): 75
Plant response rating (scale of 0 to 100 where 0 is no effect and 100 is complete control), Pigweed (pigweed): 10
Pigweed plant response rating (pigweed): 30
Plant response rating, Pigweed (pigweed; [3]): 60
Plant response rating, Pigweed (pigweed; [4]): 35
Plant response rating (scale of 0 to 100 where 0 is no effect and 100 is complete control), Chickweed (chickweed): 75
Chickweed plant response rating (chickweed): 70
Plant response rating, Chickweed (chickweed; [3]): 85
Plant response rating, Chickweed (chickweed; [4]): 75
Plant response rating (scale of 0 to 100 where 0 is no effect and 100 is complete control), Galium (galium): 55
Galium plant response rating (galium): 60
Plant response rating, Galium (galium; [3]): 75
Plant response rating, Galium (galium; [4]): 60
Plant response rating (scale of 0 to 100 where 0 is no effect and 100 is complete control), Waterhemp (waterhemp): 35
Waterhemp plant response rating (waterhemp): 55
Plant response rating, Waterhemp (waterhemp; [3]): 80
Plant response rating, Waterhemp (waterhemp; [4]): 65
Plant response rating (scale of 0 to 100 where 0 is no effect and 100 is complete control), Oat, Wild (oat, wild): 10
Oat, Wild plant response rating (oat, wild): 10
Plant response rating, Oat, Wild (oat, wild; [3]): 25
Plant response rating, Oat, Wild (oat, wild; [4]): 10
Plant response rating (scale of 0 to 100 where 0 is no effect and 100 is complete control), Velvetleaf (velvetleaf): 5
Velvetleaf plant response rating (velvetleaf): 15
Plant response rating, Velvetleaf (velvetleaf; [3]): 50
Plant response rating, Velvetleaf (velvetleaf; [4]): 35
Plant response rating (scale of 0 to 100 where 0 is no effect and 100 is complete control), Wheat (wheat): 5
Wheat plant response rating (wheat): 10
Plant response rating, Wheat (wheat; [3]): 15
Plant response rating, Wheat (wheat; [4]): 10
